Values of other authors, collected in patent publication US20240141060A1, “DOSAGE REGIMES FOR ANTI-CD73 AND ANTI-ENTPD2 ANTIBODIES AND USES THEREOF” (NOVARTIS AG, priority 2021, published 2024).

Details: patients; cited from earlier work

Nc1nc(-n2cccn2)nc(-n2cccn2)c1Br [NIR178, 5-bromo-2,6-di-(1H-pyrazol-1-yl)pyrimidine-4-amine, reference compound]
MTD: 480 mg BID
